Measured values reported in US11517016B2, “Agrochemical combinations” (UPL LTD, priority 2017, dated 2022).

Experiments:
[1] = tested on: fruit borer; experiment: Trials of Chlorantraniliprole and Orthosilicic acid on controlling fruit borer; assay type: in vivo; conditions: for Percent fruit Borer control Mean: Mean of A-10, B-10, C-10
Experimental: Trials were conducted to test the efficacy of the combination of Chlorantraniliprole and Orthosilicic acid on controlling fruit borer at different dosages.

[2] = tested on: Early Blight; experiment: Trials of Chlorantraniliprole+Mancozeb+Orthosilicic acid on Early Blight control; assay type: in vivo
Experimental: Trials were conducted to test the efficacy of the combination of Chlorantraniliprole+Mancozeb+Orthosilicic acid on Early Blight control: […]

CNC(=O)c1cc(Cl)cc(C)c1NC(=O)c1cc(Br)nn1-c1ncccc1Cl [Chlorantraniliprole]
Percent fruit Borer control A-10 ([1]; dose 150 gm-ml/ha): 73.8% | Percent fruit Borer control B-10 ([1]; dose 150 gm-ml/ha): 85.4% | Percent fruit Borer control C-10 ([1]; dose 150 gm-ml/ha): 87.8% | Percent fruit Borer control Mean ([1]; dose 150 gm-ml/ha): 82.33% | Per Cent Early Blight Control (PDC) A-10 ([2]; T-5, dose 150 gm-ml/ha): 04.52% | Per Cent Early Blight Control (PDC) B-10 ([2]; T-5, dose 150 gm-ml/ha): 02.39% | Per Cent Early Blight Control (PDC) C-10 ([2]; T-5, dose 150 gm-ml/ha): 02.76% | Per Cent Early Blight Control (PDC) Mean ([2]; T-5, dose 150 gm-ml/ha): 3.22%

Mancozeb
Per Cent Early Blight Control (PDC) A-10 ([2]; T-6, dose 2000 gm-ml/ha): 72.26% | Per Cent Early Blight Control (PDC) B-10 ([2]; T-6, dose 2000 gm-ml/ha): 77.04% | Per Cent Early Blight Control (PDC) C-10 ([2]; T-6, dose 2000 gm-ml/ha): 81.17% | Per Cent Early Blight Control (PDC) Mean ([2]; T-6, dose 2000 gm-ml/ha): 76.82%

Orthosilicic acid [OSA]
Percent fruit Borer control A-10 ([1]; dose 750 gm-ml/ha): 2.1% | Percent fruit Borer control B-10 ([1]; dose 750 gm-ml/ha): 3.6% | Percent fruit Borer control C-10 ([1]; dose 750 gm-ml/ha): 4.4% | Percent fruit Borer control Mean ([1]; dose 750 gm-ml/ha): 3.37% | Per Cent Early Blight Control (PDC) A-10 ([2]; T-7, dose 750 gm-ml/ha): 9.38% | Per Cent Early Blight Control (PDC) B-10 ([2]; T-7, dose 750 gm-ml/ha): 11.57% | Per Cent Early Blight Control (PDC) C-10 ([2]; T-7, dose 750 gm-ml/ha): 13.95% | Per Cent Early Blight Control (PDC) Mean ([2]; T-7, dose 750 gm-ml/ha): 11.63% | Effect of addition on effectiveness of the combination of chlorantraniliprole+Mancozeb against Early blight ([2]; added to Chlorantraniliprole+Mancozeb): act as synergist
